According to patent US20020026053A1, “Novel 3-(substituted) -2- indolinones compounds and use thereof as inhibitors of protein kinase activity” (priority 1997, published 2002):

Each compound was assayed on FLK-1 receptor (assay: FLK-1 Assay (cellular/catalytic ELISA, VEGF-stimulated phosphotyrosine)).
Type: cell-based
Design: concentration or dose not given beside the values
How it was run: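 Receptor phosphotyrosine ELISA: Flk-1-expressing NIH3T3 C7#3 cells, starved overnight in 0.1% FBS medium, received compound (1:200 final dilution, 0.5% DMSO) for 2 h at 37 °C, then VEGF. Anti-FLK-1-captured receptor was probed with anti-phosphotyrosine UB40 and peroxidase/ABTS read-out, relative to cells without compound.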

Row | Structure (SMILES) | Flk Kinase % Inhibition (P.110) [%]
1 | O=C1Nc2ccc(I)cc2C1=Cc1cc(Cl)cc(Cl)c1O [10734/B03] | 21.7
2 | CNS(=O)(=O)c1ccc2c(c1)C(=Cc1cc(Cl)cc(Cl)c1O)C(=O)N2 [10734/D03] | 17.4
3 | Cc1c(Br)ccc2c1C(=Cc1cc(Cl)cc(Cl)c1O)C(=O)N2 [10734/C03] | −5.6
4 | Cc1c(Br)ccc2c1C(=Cc1cc(Br)cc(Br)c1O)C(=O)N2 [10734/C07] | −2.7
5 | O=C1Nc2ccc(S(=O)(=O)Nc3ccc(C(F)(F)F)cc3)cc2C1=Cc1cc(Br)cc(Br)c1O [10734/E07] | 27.9
6 | CNS(=O)(=O)c1ccc2c(c1)C(=Cc1ccc(Br)s1)C(=O)N2 [10734/D11] | 9.8
7 | CC(C)(C)c1ccc(C=C2C(=O)Nc3c(Br)cc(Br)cc32)cc1 [10734/A10] | 4.4
8 | O=C1Nc2ccc(I)cc2C1=Cc1ccc([N+](=O)[O-])cc1 [10734/B06] | −0.9
9 | COc1cc(Br)c(O)c(C=C2C(=O)Nc3c(Br)cc(Br)c(C)c32)c1 [10718/H03] | −5.0
10 | CCN(CC)c1ccc(C=C2C(=O)Nc3ccc(CCCl)cc32)c(O)c1 [10734/G05] | 7.4
11 | O=C1Nc2ccc(S(=O)(=O)N3CCOCC3)cc2C1=Cc1cc(Br)cc(Br)c1O [10734/F07] | 6.6
12 | CC(C)(C)c1ccc(C=C2C(=O)Nc3ccc(CCCl)cc32)cc1 [10734/G10] | 10.8
13 | O=C1Nc2ccc(S(=O)(=O)Nc3ccc(C(F)(F)F)cc3)cc2C1=Cc1ccc(O)c(Br)c1 [10734/E09] | 8.0
14 | CCOc1cccc(C=C2C(=O)Nc3ccc(S(=O)(=O)N4CCOCC4)cc32)c1O [10734/F02] | 6.2
15 | O=C1Nc2ccc(S(=O)(=O)N3CCOCC3)cc2C1=Cc1cccc(F)c1O [10734/F08] | 4.8
16 | CC(C)(C)c1ccc(C=C2C(=O)Nc3ccc(S(=O)(=O)N4CCOCC4)cc32)cc1 [10734/F10] | 14.8
17 | CCN(CC)c1ccc(C=C2C(=O)Nc3ccc(S(=O)(=O)N4CCOCC4)cc32)c(O)c1 [10734/F05] | 9.8
18 | O=C1Nc2ccc(S(=O)(=O)N3CCOCC3)cc2C1=Cc1ccc([N+](=O)[O-])cc1 [10734/F06] | 11.0
19 | Cc1c(Br)cc(Br)c2c1C(=Cc1ccc(Cl)c([N+](=O)[O-])c1)C(=O)N2 [10718/H08] | −0.5
20 | O=C1Nc2ccc(S(=O)(=O)Nc3ccc(C(F)(F)F)cc3)cc2C1=Cc1ccc([N+](=O)[O-])cc1 [10734/E06] | 28.4
21 | O=C1Nc2ccc(I)cc2C1=Cc1cccc(F)c1O [10734/B08] | −0.5
22 | O=C1Nc2ccc(S(=O)(=O)N3CCOCC3)cc2C1=Cc1cc(Cl)cc(Cl)c1O [10734/F03] | 4.2
23 | O=C1Nc2c(Br)cc(Br)cc2C1=Cc1ccc(O)c(Br)c1 [10734/A09] | −7.9
24 | Cc1c(Br)ccc2c1C(=Cc1cccc(F)c1O)C(=O)N2 [10734/C08] | −34.2
25 | O=C1Nc2ccc(I)cc2C1=Cc1ccc(O)c(Br)c1 [10734/B09] | −32.3
26 | CCOC(=O)c1c(C)[nH]c(C=C2C(=O)Nc3c(Br)cc(Br)c(C)c32)c1C [10718/H02] | −1.4

Row | Structure (SMILES) | Flk Kinase % Inhibition (P.110) [%]
27 | Cc1c(Br)cc(Br)c2c1C(=Cc1ccc3ccccc3c1O)C(=O)N2 [10718/H04] | −5.7
28 | O=C1Nc2ccc(I)cc2C1=Cc1cc(Cl)ccc1O [10734/B04] | 2.8
29 | Cc1c(Br)ccc2c1C(=Cc1ccc(Br)s1)C(=O)N2 [10734/C11] | 6.3
30 | CCN(CC)c1ccc(C=C2C(=O)Nc3c(Br)cc(Br)cc32)c(O)c1 [10734/A05] | 9.1
31 | Cc1c(Br)ccc2c1C(=Cc1ccc([N+](=O)[O-])cc1)C(=O)N2 [10734/C06] | −1.7
32 | O=C1Nc2c(Br)cc(Br)cc2C1=Cc1cc(Cl)cc(Cl)c1O [10734/A03] | 10.1
33 | O=C1Nc2ccc(CCCl)cc2C1=Cc1cccc(F)c1O [10734/G08] | 11.6
34 | O=C1Nc2ccc(S(=O)(=O)Nc3ccc(C(F)(F)F)cc3)cc2C1=Cc1cccc(F)c1O [10734/E08] | 26.6
35 | CCOc1cccc(C=C2C(=O)Nc3c(Br)cc(Br)c(C)c32)c1O [10734/H02] | 0.5
36 | O=C1Nc2ccc(I)cc2C1=Cc1cc(Br)cc(Br)c1O [10734/B07] | 9.1
37 | CCOC(=O)c1cc(C=C2C(=O)Nc3c(Br)cc(Br)c(C)c32)oc1C [10718/H06] | 18.2
38 | O=C1Nc2c(Br)cc(Br)cc2C1=Cc1cc(Cl)ccc1O [10734/A04] | 0.6
39 | CCN(CC)c1ccc(C=C2C(=O)Nc3ccc(Br)c(C)c32)c(O)c1 [10734/C05] | −10.3
40 | O=C1Nc2ccc(I)cc2C1=Cc1ccc(Br)s1 [10734/B11] | 12.6
41 | O=C1Nc2ccc(S(=O)(=O)Nc3ccc(C(F)(F)F)cc3)cc2C1=Cc1cc(Cl)cc(Cl)c1O [10734/E03] | 26.9
42 | O=C1Nc2ccc(CCCl)cc2C1=Cc1cc(Cl)ccc1O [10734/G04] | −1.1
43 | CNS(=O)(=O)c1ccc2c(c1)C(=Cc1cc(Br)cc(Br)c1O)C(=O)N2 [10734/D07] | 14.7
44 | O=C1Nc2c(Br)cc(Br)cc2C1=Cc1cccc(F)c1O [10734/A08] | 0.1
45 | O=C1Nc2c(Br)cc(Br)cc2C1=Cc1ccc(Br)s1 [10734/A11] | 6.3
46 | CCOc1cccc(C=C2C(=O)Nc3ccc(I)cc32)c1O [10734/B02] | 8.5
47 | CCOc1cccc(C=C2C(=O)Nc3ccc(Br)c(C)c32)c1O [10734/C02] | −3.9
48 | CCN(CC)c1ccc(C=C2C(=O)Nc3ccc(S(=O)(=O)Nc4ccc(C(F)(F)F)cc4)cc32)c(O)c1 [10734/E05] | 10.6
49 | CNS(=O)(=O)c1ccc2c(c1)C(=Cc1cc(Cl)ccc1O)C(=O)N2 [10734/D04] | 6.1
50 | Cc1c(Br)cc(Br)c2c1C(=Cc1cc(Cl)cc(Cl)c1O)C(=O)N2 [10734/H03] | 4.6
51 | O=C1Nc2ccc(S(=O)(=O)Nc3ccc(C(F)(F)F)cc3)cc2C1=Cc1ccc(Br)s1 [10734/E11] | 19.2
52 | O=C1Nc2ccc(CCCl)cc2C1=Cc1cc(Br)cc(Br)c1O [10734/G07] | 21.9

Row | Structure (SMILES) | Flk Kinase % Inhibition (P.110) [%]
53 | CCN(CC)c1ccc(C=C2C(=O)Nc3ccc(S(=O)(=O)NC)cc32)c(O)c1 [10734/D05] | 2.4
54 | CCOc1cccc(C=C2C(=O)Nc3ccc(CCCl)cc32)c1O [10734/G02] | 1.5
55 | CNS(=O)(=O)c1ccc2c(c1)C(=Cc1ccc(O)c(Br)c1)C(=O)N2 [10734/D09] | −11.6
56 | CNS(=O)(=O)c1ccc2c(c1)C(=Cc1ccc([N+](=O)[O-])cc1)C(=O)N2 [10734/D06] | 0.0
57 | CCOc1cccc(C=C2C(=O)Nc3ccc(S(=O)(=O)Nc4ccc(C(F)(F)F)cc4)cc32)c1O [10734/E02] | 7.9
58 | Cc1c(Br)cc(Br)c2c1C(=Cc1cc(Cl)ccc1O)C(=O)N2 [10734/H04] | −1.3
59 | CCOc1cccc(C=C2C(=O)Nc3c(Br)cc(Br)cc32)c1O [10734/A02] | 4.1
60 | O=C1Nc2ccc(CCCl)cc2C1=Cc1ccc([N+](=O)[O-])cc1 [10734/G06] | 16.5
61 | O=C1Nc2ccc(CCCl)cc2C1=Cc1ccc(O)c(Br)c1 [10734/G09] | 8.5
62 | CCOC(=O)CCc1c(C(=O)OCC)[nH]c(C=C2C(=O)Nc3c(Br)cc(Br)c(C)c32)c1CC(=O)OCC [10718/H05] | 1.0
63 | CNS(=O)(=O)c1ccc2c(c1)C(=Cc1cccc(F)c1O)C(=O)N2 [10734/D08] | 2.5
64 | Cc1c(Br)ccc2c1C(=Cc1ccc(C(C)(C)C)cc1)C(=O)N2 [10734/C10] | 10.1
65 | Cc1c(Br)ccc2c1C(=Cc1ccc(O)c(Br)c1)C(=O)N2 [10734/C09] | −13.3
66 | O=C1Nc2ccc(S(=O)(=O)N3CCOCC3)cc2C1=Cc1ccc(O)c(Br)c1 [10734/F09] | −3.7
67 | COC(=O)c1[nH]c(C)c(C=C2C(=O)Nc3c(Br)cc(Br)c(C)c32)c1C(=O)OC [10718/H07] | −3.0
68 | O=C1Nc2ccc(S(=O)(=O)N3CCOCC3)cc2C1=Cc1cc(Cl)ccc1O [10734/F04] | −2.6
69 | O=C1Nc2ccc(CCCl)cc2C1=Cc1ccc(Br)s1 [10734/G11] | 8.7
70 | CC(C)(C)c1ccc(C=C2C(=O)Nc3ccc(I)cc32)cc1 [10734/B10] | 15.7
71 | CCN(CC)c1ccc(C=C2C(=O)Nc3ccc(I)cc32)c(O)c1 [10734/B05] | −2.3
72 | O=C1Nc2c(Br)cc(Br)cc2C1=Cc1ccc([N+](=O)[O-])cc1 [10734/A06] | −6.4
73 | O=C1Nc2ccc(S(=O)(=O)N3CCOCC3)cc2C1=Cc1ccc(Br)s1 [10734/F11] | 13.3
74 | CC(C)(C)c1ccc(C=C2C(=O)Nc3ccc(S(=O)(=O)Nc4ccc(C(F)(F)F)cc4)cc32)cc1 [10734/E10] | 18.5
75 | O=C1Nc2ccc(CCCl)cc2C1=Cc1cc(Cl)cc(Cl)c1O [10734/G03] | 18.7
76 | Cc1c(Br)ccc2c1C(=Cc1cc(Cl)ccc1O)C(=O)N2 [10734/C04] | −37.6
77 | CCOc1cccc(C=C2C(=O)Nc3ccc(S(=O)(=O)NC)cc32)c1O [10734/D02] | −11.5
78 | O=C1Nc2c(Br)cc(Br)cc2C1=Cc1cc(Br)cc(Br)c1O [10734/A07] | −9.4
